Literature values as cited in patent publication EP1110914A2, “Water treatment method and apparatus” (ROHM AND HAAS COMPANY, priority 1999, dated 2001).
Where two headings read alike, the source gives them in different places.

Details: in water

## O=C=O [CO2, carbon dioxide]
Pressure 101 kPa (1 bar)
  CO2 Conc @ 15° C: 2,523 ppm
  CO2 Conc @ 20° C: 2,174 ppm
  CO2 Conc @ 25° C: 1,876 ppm
Pressure 507 kPa (5 bar)
  CO2 Conc @ 15° C: 12,613 ppm
  CO2 Conc @ 20° C: 10,868 ppm
  CO2 Conc @ 25° C: 9,381 ppm
Pressure 931 kPa (9.2 bar)
  CO2 Conc @ 15° C: 23,207 ppm
  CO2 Conc @ 20° C: 19,996 ppm
  CO2 Conc @ 25° C: 17,261 ppm
